# Reference: patent US6706663B2, “Herbicidal 3-heterocyclic substituted benzisothiazole and benzisoxazole compounds” (Wyeth, priority 2000, dated 2004)
# What was measured:
# [1] = test system: IPOHE (Ipomoea hederacea); assay: Preemergence herbicidal evaluation; type: in vivo, (L.) Jacq.; conditions: preemergence, rated 4-5 weeks after treatment
# [2] = test system: CHEAL (Chenopodium album); assay: Postemergence herbicidal evaluation; type: in vivo, L.
# In short: (§1)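 Seedlings grown about two weeks in flats, sprayed, then kept under standard greenhouse care. Rated visually 4–5 weeks after treatment on a 0–9 scale (stand, vigour, malformation, size, chlorosis, overall appearance) relative to untreated control; repeat tests averaged.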
# [3] = test system: AMBEL (Ambrosia artemisifolia); assay: Postemergence herbicidal evaluation; type: in vivo, L.
# In short: as §1
# [4] = test system: CASOB (Cassia obtusifolia); assay: Postemergence herbicidal evaluation; type: in vivo, L.
# In short: as §1
# CYPIR (Cyperus iria) = assay: Flooded paddy, preemergence weed control; type: in vivo; conditions: rated 3-4 weeks after treatment, 0-9 rating scale
# In short: (§2)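 Silt loam, sowing depth ≤0.5 cm; permanent flood 1.5–3 cm above soil; greenhouse culture after treatment. Readout: 0-9 visual scale (stand, vigor, malformation, size, chlorosis, appearance) vs control.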
# [5] = test system: CHEAL (Chenopodium album); assay: Preemergence herbicidal evaluation; type: in vivo, L.; conditions: preemergence, rated 4-5 weeks after treatment
# In short: (§3)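 Visual 0–9 rating versus control (stand, vigor, malformation, size, chlorosis, overall appearance), scored four to five weeks post-treatment. Preemergence spray of aqueous acetone solution onto freshly seeded soil cups; plants grown under conventional greenhouse care.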
# [6] = test system: AMBEL (Ambrosia artemisifolia); assay: Preemergence herbicidal evaluation; type: in vivo, L.; conditions: preemergence, rated 4-5 weeks after treatment
# In short: as §3
# [7] = test system: CASOB (Cassia obtusifolia); assay: Preemergence herbicidal evaluation; type: in vivo, L.; conditions: preemergence, rated 4-5 weeks after treatment
# In short: as §3
# ORYSAT (Rice, Tebonnet) [8] = assay: Postemergence herbicidal evaluation; type: in vivo, Oryza sativa, (L.) Tebonnet
# In short: as §1
# ORYSAT (Rice, Tebonnet) [9] = assay: Flooded paddy, post-transplant rice tolerance; type: in vivo, Oryza sativa, (L.) Tebonnet; conditions: flooded paddy, post-transplant rice, rated 3-4 weeks after treatment, 0-9 rating scale
# In short: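 Visual 0-9 rating against a control, covering stand, vigor, malformation, size, chlorosis and overall appearance. Treatment was applied after transplanting paired ten-day-old seedlings into flooded silt loam, with water kept 1.5 to 3 cm deep on greenhouse benches.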
# [10] = test system: TRZAWR (Wheat, Winter, cv Riband); assay: Preemergence herbicidal evaluation; type: in vivo, Triticum aestivum; conditions: preemergence, rated 4-5 weeks after treatment
# In short: as §3
# [11] = test system: ABUTH (Abutilon theophrasti); assay: Postemergence herbicidal evaluation; type: in vivo, Medic.
# In short: as §1
# [12] = test system: ECHCG (Echinochloa crus-galli); assay: Preemergence herbicidal evaluation; type: in vivo, (L.) Beau; conditions: preemergence, rated 4-5 weeks after treatment
# In short: as §3
# SETVI (Setaria viridis) = assay: Preemergence herbicidal evaluation; type: in vivo, (L.) Beau; conditions: preemergence, rated 4-5 weeks after treatment
# In short: as §3
# [13] = test system: ABUTH (Abutilon theophrasti); assay: Preemergence herbicidal evaluation; type: in vivo, Medic.; conditions: preemergence, rated 4-5 weeks after treatment
# [14] = test system: GLXMAW (Soybean, Williams); assay: Postemergence herbicidal evaluation; type: in vivo, Glycine max, (L.) Merr. cv Williams
# In short: as §1
# ZEAMX (Corn, Field) = assay: Preemergence herbicidal evaluation; type: in vivo, Zea mays, L.; conditions: preemergence, rated 4-5 weeks after treatment
# [15] = test system: IPOHE (Ipomoea hederacea); assay: Postemergence herbicidal evaluation; type: in vivo, (L.) Jacq.
# In short: as §1
# [16] = test system: MOOVA (Monochoria vaginalis); assay: Flooded paddy, preemergence weed control; type: in vivo, Presl.; conditions: rated 3-4 weeks after treatment, 0-9 rating scale
# In short: as §2
# [17] = test system: GLXMAW (Soybean, Williams); assay: Preemergence herbicidal evaluation; type: in vivo, Glycine max, (L.) Merr. cv Williams; conditions: preemergence, rated 4-5 weeks after treatment
smiles,measurement,setting,value
"Cc1cscc1-c1nsc2ccc(-n3c(=O)cc(C(F)(F)F)n(C)c3=O)cc12 [Compound 26, 1-methyl-3-[3-(4-methyl-3-thienyl)-1,2-benzisothiazol-5-yl]-6-(trifluoromethyl)uracil]",IPOHE preemergence herbicidal rating,[1]; Rate 0.0620 kg/ha,1.5
same,IPOHE preemergence herbicidal rating,[1]; Rate 0.1250 kg/ha,4.0
same,IPOHE preemergence herbicidal rating,[1]; Rate 0.2500 kg/ha,6.0
same,"Postemergence herbicidal rating, CHEAL",[2]; rate 0.0320 kg/ha,7.0
same,"Postemergence herbicidal rating, CHEAL",[2]; rate 0.0620 kg/ha,9.0
same,"Postemergence herbicidal rating, AMBEL",[3]; rate 0.0320 kg/ha,9.0
same,"Postemergence herbicidal rating, AMBEL",[3]; rate 0.0620 kg/ha,9.0
same,"Postemergence herbicidal rating, CASOB",[4]; rate 0.0320 kg/ha,4.0
same,"Postemergence herbicidal rating, CASOB",[4]; rate 0.0620 kg/ha,9.0
same,"herbicidal rating, CYPIR",CYPIR (Cyperus iria); rate 0.0080 kg/ha,8.5
same,"herbicidal rating, CYPIR",CYPIR (Cyperus iria); rate 0.0320 kg/ha,8.3
same,"herbicidal rating, CYPIR",CYPIR (Cyperus iria); rate 0.1250 kg/ha,9.0
same,CHEAL preemergence herbicidal rating,[5]; Rate 0.0620 kg/ha,9.0
same,CHEAL preemergence herbicidal rating,[5]; Rate 0.1250 kg/ha,9.0
same,CHEAL preemergence herbicidal rating,[5]; Rate 0.2500 kg/ha,9.0
same,AMBEL preemergence herbicidal rating,[6]; Rate 0.0620 kg/ha,3.0
same,AMBEL preemergence herbicidal rating,[6]; Rate 0.1250 kg/ha,6.0
same,AMBEL preemergence herbicidal rating,[6]; Rate 0.2500 kg/ha,8.5
same,CASOB preemergence herbicidal rating,[7]; Rate 0.0620 kg/ha,1.0
same,CASOB preemergence herbicidal rating,[7]; Rate 0.1250 kg/ha,3.5
same,CASOB preemergence herbicidal rating,[7]; Rate 0.2500 kg/ha,6.0
same,"Postemergence herbicidal rating, ORYSAT","ORYSAT (Rice, Tebonnet) [8]; rate 0.0320 kg/ha",3.5
same,"Postemergence herbicidal rating, ORYSAT","ORYSAT (Rice, Tebonnet) [8]; rate 0.0620 kg/ha",4.5
same,"herbicidal rating, ORYSAT (rice tolerance)","ORYSAT (Rice, Tebonnet) [9]; rate 0.0080 kg/ha",0.0
same,"herbicidal rating, ORYSAT (rice tolerance)","ORYSAT (Rice, Tebonnet) [9]; rate 0.0320 kg/ha",2.0
same,"herbicidal rating, ORYSAT (rice tolerance)","ORYSAT (Rice, Tebonnet) [9]; rate 0.1250 kg/ha",4.3
same,TRZAWR preemergence herbicidal rating,[10]; Rate 0.0620 kg/ha,2.0
same,TRZAWR preemergence herbicidal rating,[10]; Rate 0.1250 kg/ha,3.0
same,TRZAWR preemergence herbicidal rating,[10]; Rate 0.2500 kg/ha,7.0
same,"Postemergence herbicidal rating, ABUTH",[11]; rate 0.0320 kg/ha,9.0
same,"Postemergence herbicidal rating, ABUTH",[11]; rate 0.0620 kg/ha,9.0
same,ECHCG preemergence herbicidal rating,[12]; Rate 0.0620 kg/ha,6.5
same,ECHCG preemergence herbicidal rating,[12]; Rate 0.1250 kg/ha,9.0
same,ECHCG preemergence herbicidal rating,[12]; Rate 0.2500 kg/ha,9.0
same,SETVI preemergence herbicidal rating,SETVI (Setaria viridis); Rate 0.0620 kg/ha,9.0
same,SETVI preemergence herbicidal rating,SETVI (Setaria viridis); Rate 0.1250 kg/ha,9.0
same,SETVI preemergence herbicidal rating,SETVI (Setaria viridis); Rate 0.2500 kg/ha,9.0
same,ABUTH preemergence herbicidal rating,[13]; Rate 0.0620 kg/ha,4.0
same,ABUTH preemergence herbicidal rating,[13]; Rate 0.1250 kg/ha,9.0
same,ABUTH preemergence herbicidal rating,[13]; Rate 0.2500 kg/ha,9.0
same,"Postemergence herbicidal rating, GLXMAW",[14]; rate 0.0320 kg/ha,6.0
same,"Postemergence herbicidal rating, GLXMAW",[14]; rate 0.0620 kg/ha,6.5
same,ZEAMX preemergence herbicidal rating,"ZEAMX (Corn, Field); Rate 0.0620 kg/ha",2.5
same,ZEAMX preemergence herbicidal rating,"ZEAMX (Corn, Field); Rate 0.1250 kg/ha",3.5
same,ZEAMX preemergence herbicidal rating,"ZEAMX (Corn, Field); Rate 0.2500 kg/ha",6.5
same,"Postemergence herbicidal rating, IPOHE",[15]; rate 0.0320 kg/ha,9.0
same,"Postemergence herbicidal rating, IPOHE",[15]; rate 0.0620 kg/ha,9.0
same,"herbicidal rating, MOOVA",[16]; rate 0.0080 kg/ha,9.0
same,"herbicidal rating, MOOVA",[16]; rate 0.0320 kg/ha,9.0
same,"herbicidal rating, MOOVA",[16]; rate 0.1250 kg/ha,9.0
same,GLXMAW preemergence herbicidal rating,[17]; Rate 0.0620 kg/ha,1.0
same,GLXMAW preemergence herbicidal rating,[17]; Rate 0.1250 kg/ha,3.0
same,GLXMAW preemergence herbicidal rating,[17]; Rate 0.2500 kg/ha,4.5
